Experiment: Measurement of oxidation induction time (OIT) by DSC
Conditions: for Time at 180° C. (time to oxidation, oxidation induction time): isothermal 180° C., with liquid polyisoprene LIR-50, O2 atmosphere 50 ml/min, DSC peak
Procedure: The compound of formula III) was investigated under laboratory conditions for its potential protective effect as an aging stabilizer by measurement of the oxidation induction time.
To this end the compounds of formula III) and 6PPD in each case together with a polymer (liquid synthetic polyisoprene (IR), LIR-50, Kuraray, weight average molecular weight distribution Mw=54 000 g/mol, glass transition temperature Tg=−63° C.) were heated at constant temperature (180° C.) until onset of oxidation (start temperature 35° C., heating to 170° C. at a heating rate of 20 K/min (kelvin per minute), heating to 180° C. at a heating rate of 1 K/min; purge gas: nitrogen (N2), volume flow 50 ml/min).
The specimen was kept under isothermal conditions at 180° C. under an N2 atmosphere for 5 minutes and the atmosphere was then switched to an O2 atmosphere (volume flow 50 ml/min).
Oxidation was determined via a peak using DSC (differential scanning calorimetry).
The time in minutes to oxidation was measured.

Structure (SMILES) | Time at 180° C. (time to oxidation, oxidation induction time) [min] | antioxidant effect compared to 6PPD (at 180° C., taking into account measurement accuracy of ± 10 minutes)
CC(C)CC(C)Nc1ccc(Nc2ccccc2)cc1 (stereo not drawn) [Formula 6PPD, N-(1,3-dimethylbutyl)-N′-phenyl-p-phenylenediamine, reference compound] | 116 ± 10 | 
CC(C)CC(C)Nc1ccc2[nH]c3c(c2c1)CCCC3 (stereo not drawn) [Formula III), 6-(1,3-dimethylbutylamino)-2,3,4,9-tetrahydro-1H-carbazole] | 119 ± 10 | comparable antioxidant effect to 6PPD
